The source of these data is patent publication US20250270209A1 (INTERLINE THERAPEUTICS, INC., priority 2022, published 2025).

For assay [1], the target named is T1, wild type LRRK2 overexpressed in recombinant HEK-293T cells (Homo sapiens, UniProt Q5S007).
T1 construct: host or cells: HEK293T (transient transfection with pCMV-LRRK2 WT plasmid)
Kind of assay: pS935 LRRK2 Cell Assay (HTRF, phospho-LRRK2 Ser935). Type of assay: cell-based. The conditions noted are these: LRRK2 Inhibition, Table 8, 2 hours compound incubation. Summed up:
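HEK-293T cells transiently transfected with wild-type LRRK2 for 24 h, plated overnight, then treated 2 h at 37° C with compound (top 10 μM, 3-fold, 9 doses, duplicates, 0.2% DMSO). Lysates probed overnight at 23° C by sandwich HTRF for pSer935; 665/615 nm ratio read.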
(In general: In TR-FRET formats the signal depends on donor and acceptor labels being close together.)

The target in another assay is LRRK2 wild type enzyme (Homo sapiens, UniProt Q5S007). Kind of assay: Biochemical Assay: LRRK2 TR-FRET (LanthaScreen) kinase assay with LRRKtide substrate. The conditions noted are these: LRRK2 Inhibition, Table 8. The method in brief: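 Human wild-type LRRK2 (3 nM) preincubated 15 min with compound (11-point, 3-fold, top 10 μM), then reacted 120 min at 23 °C with 400 nM LRRKtide and 25 μM ATP, pH 8.0. Stopped with EDTA; Tb-anti-pLRRKtide TR-FRET read after 30 min.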

What is called IC50 is the concentration that inhibits the measured activity by half.

Structures are written as SMILES.

T1 sequence (Q5S007 whole entry): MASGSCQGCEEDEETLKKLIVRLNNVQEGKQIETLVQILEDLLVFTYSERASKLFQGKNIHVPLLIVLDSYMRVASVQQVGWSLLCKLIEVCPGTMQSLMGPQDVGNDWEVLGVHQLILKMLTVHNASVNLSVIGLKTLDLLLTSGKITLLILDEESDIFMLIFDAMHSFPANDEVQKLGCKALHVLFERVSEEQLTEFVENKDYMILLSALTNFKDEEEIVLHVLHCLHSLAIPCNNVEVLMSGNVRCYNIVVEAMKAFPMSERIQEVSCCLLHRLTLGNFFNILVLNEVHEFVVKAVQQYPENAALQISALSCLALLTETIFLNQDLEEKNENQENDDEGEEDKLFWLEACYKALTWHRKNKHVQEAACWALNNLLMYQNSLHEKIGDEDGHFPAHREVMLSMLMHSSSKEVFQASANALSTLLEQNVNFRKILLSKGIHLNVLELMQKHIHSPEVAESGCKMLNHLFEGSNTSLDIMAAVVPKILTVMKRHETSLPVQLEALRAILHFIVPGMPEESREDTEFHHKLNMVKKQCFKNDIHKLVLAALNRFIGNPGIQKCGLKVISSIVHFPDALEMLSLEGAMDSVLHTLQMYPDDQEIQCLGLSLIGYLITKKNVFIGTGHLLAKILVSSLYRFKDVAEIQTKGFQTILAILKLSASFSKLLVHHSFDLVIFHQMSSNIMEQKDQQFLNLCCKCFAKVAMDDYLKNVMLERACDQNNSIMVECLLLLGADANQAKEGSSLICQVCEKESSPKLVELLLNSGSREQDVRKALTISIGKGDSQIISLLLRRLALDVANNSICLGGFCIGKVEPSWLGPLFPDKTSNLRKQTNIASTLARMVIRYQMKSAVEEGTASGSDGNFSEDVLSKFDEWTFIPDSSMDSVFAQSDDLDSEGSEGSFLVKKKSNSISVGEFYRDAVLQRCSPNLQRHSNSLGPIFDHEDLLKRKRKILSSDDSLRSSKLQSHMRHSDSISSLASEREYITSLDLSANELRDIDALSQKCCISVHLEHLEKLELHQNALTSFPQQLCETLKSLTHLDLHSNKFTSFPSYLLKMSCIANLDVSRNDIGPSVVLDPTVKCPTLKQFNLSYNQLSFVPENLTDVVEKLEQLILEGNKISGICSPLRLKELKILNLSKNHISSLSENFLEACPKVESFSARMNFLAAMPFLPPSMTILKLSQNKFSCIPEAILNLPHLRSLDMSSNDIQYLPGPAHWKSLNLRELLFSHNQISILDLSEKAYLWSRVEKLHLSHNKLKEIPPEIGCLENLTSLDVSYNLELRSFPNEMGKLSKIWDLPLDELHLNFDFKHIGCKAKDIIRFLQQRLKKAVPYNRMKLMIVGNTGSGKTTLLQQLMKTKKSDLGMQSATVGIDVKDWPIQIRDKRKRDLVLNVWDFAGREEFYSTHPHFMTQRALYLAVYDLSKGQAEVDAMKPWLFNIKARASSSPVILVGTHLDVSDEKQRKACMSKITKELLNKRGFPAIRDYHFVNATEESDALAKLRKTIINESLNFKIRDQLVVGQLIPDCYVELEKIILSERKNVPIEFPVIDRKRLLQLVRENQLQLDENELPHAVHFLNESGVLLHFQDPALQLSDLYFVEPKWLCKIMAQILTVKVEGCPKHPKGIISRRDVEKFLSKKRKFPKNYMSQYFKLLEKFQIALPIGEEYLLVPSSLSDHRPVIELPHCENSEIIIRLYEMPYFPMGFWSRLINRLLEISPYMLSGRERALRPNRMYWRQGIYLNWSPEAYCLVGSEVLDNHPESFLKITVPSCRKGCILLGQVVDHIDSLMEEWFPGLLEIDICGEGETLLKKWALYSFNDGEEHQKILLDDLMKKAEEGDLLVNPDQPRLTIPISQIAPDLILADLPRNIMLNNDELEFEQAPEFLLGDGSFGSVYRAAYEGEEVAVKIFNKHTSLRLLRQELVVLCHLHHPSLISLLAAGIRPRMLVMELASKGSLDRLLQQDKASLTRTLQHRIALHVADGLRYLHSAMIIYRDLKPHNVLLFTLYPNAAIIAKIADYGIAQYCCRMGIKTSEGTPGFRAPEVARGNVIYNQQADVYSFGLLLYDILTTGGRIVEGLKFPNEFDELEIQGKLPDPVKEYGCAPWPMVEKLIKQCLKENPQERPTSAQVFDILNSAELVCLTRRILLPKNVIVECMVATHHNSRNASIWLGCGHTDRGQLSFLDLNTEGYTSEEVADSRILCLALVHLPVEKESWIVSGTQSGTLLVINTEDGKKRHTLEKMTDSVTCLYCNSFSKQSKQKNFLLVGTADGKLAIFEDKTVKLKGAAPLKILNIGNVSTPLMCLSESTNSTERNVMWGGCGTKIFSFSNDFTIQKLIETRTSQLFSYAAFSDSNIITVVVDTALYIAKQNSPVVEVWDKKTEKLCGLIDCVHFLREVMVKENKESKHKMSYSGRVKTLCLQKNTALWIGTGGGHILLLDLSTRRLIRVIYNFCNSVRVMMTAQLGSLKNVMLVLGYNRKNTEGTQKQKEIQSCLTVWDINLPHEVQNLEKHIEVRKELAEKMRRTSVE
Chain of LRRK2 wild type enzyme (Q5S007 whole entry): as above

As to `C[C@@H]1C[C@H](n2c(CC(=O)NCc3cccnc3)nc3cnc4ccc(C#N)cc4c32)CCO1` [Compound 83, 2-{8-cyano-1-[(2R,4R)-2-methyloxan-4-yl]-1H-imidazo[4,5-c]quinolin-2-yl}-N-[(pyridin-3-yl)methyl]acetamide], the IC50 in assay [1] came to 25.1 nM; against LRRK2 wild type enzyme, 0.33 nM.

Regarding `Cc1nccnc1NC(=O)Cc1nc2cnc3ccc(C#N)cc3c2n1[C@@H]1CCO[C@H](C)C1` [Compound 311, N-(3-methyl-2-pyrazinyl){3-[(2R,4R)-2-methyltetrahydro-2H-pyran-4-yl]-12-cyano-3,5,8-triazatricyclo[7.4.0.0^2,6]trideca-1(9),2(6),4,7,10,12-hexaen-4-yl}acetamide], the concentration for half-maximal inhibition (IC50) in assay [1] stood at 10 nM; against LRRK2 wild type enzyme, 0.583 nM.

As for `Cc1cnncc1NC(=O)Cc1nc2cnc3ccc(C#N)cc3c2n1[C@@H]1CCO[C@H](C)C1` [Compound 258, N-(5-methyl-4-pyridazinyl){3-[(2R,4R)-2-methyltetrahydro-2H-pyran-4-yl]-12-cyano-3,5,8-triazatricyclo[7.4.0.0^2,6]trideca-1,4,6,8,10,12-hexaen-4-yl}acetamide], the IC50 is 17.2 nM in assay [1] and 0.521 nM against LRRK2 wild type enzyme.

Regarding `C[C@@H]1C[C@H](n2c(CC3CN(C(=O)c4ccccn4)C3)nc3cnc4ccc(C#N)cc4c32)CCO1` [Compound 56, 1-[(2R,4R)-2-methyloxan-4-yl]-2-{[1-(pyridine-2-carbonyl)azetidin-3-yl]methyl}-1H-imidazo[4,5-c]quinoline-8-carbonitrile], the 50% inhibitory concentration (IC50) in assay [1] was 158 nM; on LRRK2 wild type enzyme, 2.39 nM.

`C[C@@H]1C[C@H](n2c([C@H]3CN(CC4CC4)S(=O)(=O)C3)nc3cnc4ccc(C#N)cc4c32)CCO1` [Compound 2, 2-[(4R)-2-(cyclopropylmethyl)-1,1-dioxo-1λ^6,2-thiazolidin-4-yl]-1-[(2R,4R)-2-methyloxan-4-yl]-1H-imidazo[4,5-c]quinoline-8-carbonitrile]: the concentration for half-maximal inhibition (IC50) was 39.2 nM in assay [1] and 0.662 nM against LRRK2 wild type enzyme.

`C[C@@H]1C[C@H](n2c(CC(=O)Nc3nccs3)nc3cnc4ccc(C#N)cc4c32)CCO1` [Compound 335, N-(1,3-thiazol-2-yl){3-[(2R,4R)-2-methyltetrahydro-2H-pyran-4-yl]-12-cyano-3,5,8-triazatricyclo[7.4.0.0^2,6]trideca-1(9),2(6),4,7,10,12-hexaen-4-yl}acetamide]: the half-maximal inhibitory concentration (IC50) stood at 4.06 nM in assay [1] and 0.433 nM against LRRK2 wild type enzyme.

As for `C[C@@H]1C[C@H](n2c(CC(=O)Nc3cnccn3)nc3cnc4ccc(C#N)cc4c32)CCO1` [Compound 337, N-2-pyrazinyl{3-[(2R,4R)-2-methyltetrahydro-2H-pyran-4-yl]-12-cyano-3,5,8-triazatricyclo[7.4.0.0^2,6]trideca-1,4,6,8,10,12-hexaen-4-yl}acetamide], the results for the 50% inhibitory concentration (IC50) (in assay [1]; against LRRK2 wild type enzyme) were 1.61 nM and 0.337 nM, respectively.

Turning to `C[C@@H]1C[C@H](n2c([C@@H]3CC(=O)N(c4cnn(C)c4)C3)nc3cnc4ccc(C#N)cc4c32)CCO1` [Compound 48, 2-[(3R)-1-(1-methyl-1H-pyrazol-4-yl)-5-oxopyrrolidin-3-yl]-1-[(2R,4R)-2-methyloxan-4-yl]-1H-imidazo[4,5-c]quinoline-8-carbonitrile], the half-maximal inhibitory concentration (IC50) in assay [1] was 110 nM; at LRRK2 wild type enzyme it was 0.921 nM.

As for `C[C@@H]1C[C@H](n2c(CC(=O)NC[C@H]3CCCO3)nc3cnc4ccc(C#N)cc4c32)CCO1` [Compound 153, 2-{8-cyano-1-[(2R,4R)-2-methyloxan-4-yl]-1H-imidazo[4,5-c]quinolin-2-yl}-N-{[(2R)-oxolan-2-yl]methyl} acetamide], the results for the IC50 (in assay [1]; against LRRK2 wild type enzyme) were 21.3 nM and 0.514 nM, respectively.

`C[C@@H]1C[C@H](n2c(CC(=O)N(C)CC(F)(F)F)nc3cnc4ccc(C#N)cc4c32)CCO1` [Compound 81, 2-{8-cyano-1-[(2R,4R)-2-methyloxan-4-yl]-1H-imidazo[4,5-c]quinolin-2-yl}-N-methyl-N-(2,2,2-trifluoroethyl)acetamide]: the IC50 in assay [1] was 728 nM; against LRRK2 wild type enzyme it was 10.5 nM.

As to `C[C@@H]1C[C@H](n2c(CC(=O)Nc3ccccc3)nc3cnc4ccc(C#N)cc4c32)CCO1` [Compound 330, N-phenyl{3-[(2R,4R)-2-methyltetrahydro-2H-pyran-4-yl]-12-cyano-3,5,8-triazatricyclo[7.4.0.0^2,6]trideca-1(9),2(6),4,7,10,12-hexaen-4-yl}acetamide], the concentration for half-maximal inhibition (IC50) in assay [1] turned out to be 4.68 nM; on LRRK2 wild type enzyme, 0.507 nM.

As for `COc1ncncc1NC(=O)Cc1nc2cnc3ccc(C#N)cc3c2n1[C@@H]1CCO[C@H](C)C1` [Compound 251, N-(4-methoxy-5-pyrimidinyl){3-[(2R,4R)-2-methyltetrahydro-2H-pyran-4-yl]-12-cyano-3,5,8-triazatricyclo[7.4.0.0^2,6]trideca-1(9),2(6),4,7,10,12-hexaen-4-yl}acetamide], the concentration for half-maximal inhibition (IC50) in assay [1] amounted to 3.56 nM; against LRRK2 wild type enzyme, 0.382 nM.

On to `N#Cc1ccc2ncc3nc(CC(=O)NCC4CC4)n(C4CCCC4)c3c2c1` [Compound 109, 2-{8-cyano-1-cyclopentyl-1H-imidazo[4,5-c]quinolin-2-yl}-N— (cyclopropylmethyl)acetamide], for which the IC50 worked out at 172 nM in assay [1] and 1.82 nM at LRRK2 wild type enzyme.

For the molecule `C[C@@H]1C[C@H](n2c(CC(=O)Nc3cnc(C(F)(F)F)nc3)nc3cnc4ccc(C#N)cc4c32)CCO1` [Compound 321, N-[2-(trifluoromethyl)-5-pyrimidinyl]{3-[(2R,4R)-2-methyltetrahydro-2H-pyran-4-yl]-12-cyano-3,5,8-triazatricyclo[7.4.0.0^2,6]trideca-1(9),2(6),4,7,10,12-hexaen-4-yl}acetamide], the half-inhibitory concentration (IC50) turned out to be 25.2 nM in assay [1] and 0.66 nM at LRRK2 wild type enzyme.

Consider `C[C@@H]1C[C@H](n2c(CC(=O)NC3CCC3)nc3cnc4ccc(Cl)cc4c32)CCO1` [Compound 332, N-cyclobutyl{3-[(2R,4R)-2-methyltetrahydro-2H-pyran-4-yl]-12-chloro-3,5,8-triazatricyclo[7.4.0.0^2,6]trideca-1(9),2(6),4,7,10,12-hexaen-4-yl}acetamide], for which the IC50 in assay [1] was 10.9 nM; against LRRK2 wild type enzyme, 0.741 nM.

On to `COc1nc(C)nc(C)c1NC(=O)Cc1nc2cnc3ccc(C#N)cc3c2n1[C@@H]1CCO[C@H](C)C1` [Compound 203, N-(4-methoxy-2,6-dimethyl-5-pyrimidinyl){3-[(2R,4R)-2-methyltetrahydro-2H-pyran-4-yl]-12-cyano-3,5,8-triazatricyclo[7.4.0.0^2,6]trideca-1,4,6,8,10,12-hexaen-4-yl}acetamide], for which the figures for the IC50 (in assay [1]; at LRRK2 wild type enzyme) were 136 nM and 0.338 nM, respectively.

Regarding `COc1ccncc1NC(=O)Cc1nc2cnc3ccc(C#N)cc3c2n1[C@@H]1CCO[C@H](C)C1` [Compound 250, N-(4-methoxy-3-pyridyl){3-[(2R,4R)-2-methyltetrahydro-2H-pyran-4-yl]-12-cyano-3,5,8-triazatricyclo[7.4.0.0^2,6]trideca-1(9),2(6),4,7,10,12-hexaen-4-yl}acetamide], the IC50 is 6.01 nM in assay [1] and 0.664 nM against LRRK2 wild type enzyme.

`C[C@@H]1C[C@H](n2c(C3CC(=O)N([C@@H](C)C4CC4)C3)nc3cnc4ccc(C#N)cc4c32)CCO1` (stereo partly drawn) [Compound 35, 2-{1-[(1S)-1-cyclopropylethyl]-5-oxopyrrolidin-3-yl}-1-[(2R,4R)-2-methyloxan-4-yl]-1H-imidazo[4,5-c]quinoline-8-carbonitrile]: the values for the IC50 (in assay [1]; at LRRK2 wild type enzyme) were 179 nM and 2.98 nM, respectively.
